ChEMBL document CHEMBL3045324, “5-phenyl-1-benzofuran-2-yl derivatives: synthesis, antimicrobial, and antioxidant activity” (2013)
Values after ≈ are worked out from the molar mass of the structure shown. Active and inactive are the calls of the source. No cut-off for these calls is given here.

How the values were obtained:
[1] = tested on: Radical scavenging activity; test: Antioxidant activity assessed as DPPH radical scavenging activity at 1 mg/mL after 15 min UV-vis spectrophotometric analysis relative to control; assay type: functional
Candida albicans [2] = test: Antifungal activity against Candida albicans NCPF 3179 assessed as growth inhibition at 1 to 50 mg/mL after 3 days; assay type: functional, organism-based
Escherichia coli [3] = test: Antibacterial activity against Escherichia coli NCTC 12923 assessed as growth inhibition at 1 to 50 mg/mL after 24 hr; assay type: functional, organism-based
Bacillus subtilis [4] = test: Antibacterial activity against Bacillus subtilis NCTC 10400 assessed as growth inhibition at 1 to 50 mg/mL after 24 hr; assay type: functional, organism-based
Staphylococcus aureus [5] = test: Antibacterial activity against Staphylococcus aureus NCTC 10788 assessed as growth inhibition at 1 to 50 mg/mL after 24 hr; assay type: functional, organism-based
Candida albicans [6] = test: Antifungal activity against Candida albicans NCPF 3179 assessed as growth inhibition after 3 days; assay type: functional; conditions: NCPF 3179, 72 h
Bacillus subtilis [7] = test: Antibacterial activity against Bacillus subtilis NCTC 10400 assessed as growth inhibition after 24 hr; assay type: functional; conditions: NCTC 10400, 24 h
Candida albicans [8] = test: Antifungal activity against Candida albicans NCPF 3179 assessed as growth inhibition at 50 mg/mL after 3 days; assay type: functional; conditions: NCPF 3179, 72 h, read-out: IZ
Bacillus subtilis [9] = test: Antibacterial activity against Bacillus subtilis NCTC 10400 assessed as growth inhibition at 50 mg/mL after 24 hr; assay type: functional; conditions: for zone of inhibition at 50000 µg/mL: NCTC 10400, 24 h, read-out: IZ
Staphylococcus aureus [10] = test: Antibacterial activity against Staphylococcus aureus NCTC 10788 assessed as growth inhibition at 50 mg/mL after 24 hr; assay type: functional; conditions: for zone of inhibition at 50000 µg/mL: NCTC 10788, 24 h, read-out: IZ
Escherichia coli [11] = test: Antibacterial activity against Escherichia coli NCTC 12923 assessed as growth inhibition at 50 mg/mL after 24 hr; assay type: functional; conditions: for zone of inhibition at 50000 µg/mL: NCTC 12923, 24 h, read-out: IZ
Escherichia coli [12] = test: Antibacterial activity against Escherichia coli NCTC 12923 assessed as growth inhibition after 24 hr; assay type: functional; conditions: NCTC 12923, 24 h
Staphylococcus aureus [13] = test: Antibacterial activity against Staphylococcus aureus NCTC 10788 assessed as growth inhibition after 24 hr; assay type: functional; conditions: NCTC 10788, 24 h

Row | Molecule | Activity [1] [%] | growth inhibition (GI) (Candida albicans [2]) | growth inhibition (GI) (Escherichia coli [3]) | growth inhibition (GI) (Bacillus subtilis [4]) | growth inhibition (GI) (Staphylococcus aureus [5]) | further results
1 | CCOc1ccccc1-c1ccc(C(O)c2cc3cc(-c4ccccc4OCC)ccc3o2)cc1 (stereo not given) | 19.3 | inactive | inactive | inactive | inactive | –
2 | CS(=O)(=O)c1cccc(-c2ccc(C(=O)c3cc4cc(-c5cccc(S(C)(=O)=O)c5)ccc4o3)cc2)c1 | 12.3 | – | inactive | – | – | MIC (Candida albicans [6]): 500 µg/mL (≈ 942 µM); MIC (Bacillus subtilis [7]): 500 µg/mL (≈ 942 µM); zone of inhibition at 50000 µg/mL (Candida albicans [8]): 6 mm; zone of inhibition at 50000 µg/mL (Bacillus subtilis [9]): 16 mm; zone of inhibition at 50000 µg/mL (Staphylococcus aureus [10]): 0 mm; zone of inhibition at 50000 µg/mL (Escherichia coli [11]): 0 mm
3 | O=C(c1ccc(Br)cc1)c1cc2cc(Br)ccc2o1 | 11.7 | – | – | – | – | MIC (Candida albicans [6]): 50 µg/mL (≈ 132 µM); MIC (Escherichia coli [12]): 50 µg/mL (≈ 132 µM); MIC (Bacillus subtilis [7]): 50 µg/mL (≈ 132 µM); MIC (Staphylococcus aureus [13]): 50 µg/mL (≈ 132 µM); zone of inhibition at 50000 µg/mL (Candida albicans [8]): 15 mm; zone of inhibition at 50000 µg/mL (Bacillus subtilis [9]): 24 mm; zone of inhibition at 50000 µg/mL (Staphylococcus aureus [10]): 23 mm; zone of inhibition at 50000 µg/mL (Escherichia coli [11]): 17 mm
4 | CC(C)C(O)(c1ccc(-c2ccccc2)cc1)c1cc2cc(-c3ccccc3)ccc2o1 (stereo not given) | 52.3 | inactive | inactive | inactive | inactive | –
5 | CCc1ccc(-c2ccc(C(O)(c3cc4cc(-c5ccc(CC)cc5)ccc4o3)C(C)(C)C)cc2)cc1 (stereo not given) | 24.2 | inactive | inactive | inactive | inactive | –
6 | CCc1ccc(-c2ccc(C(O)c3cc4cc(-c5ccc(CC)cc5)ccc4o3)cc2)cc1 (stereo not given) | 55.7 | inactive | inactive | inactive | inactive | –
7 | OC(Cc1ccccc1)(c1ccc(-c2ccccc2)cc1)c1cc2cc(-c3ccccc3)ccc2o1 (stereo not given) | 30.5 | inactive | inactive | inactive | inactive | –
8 | Cc1cc(C(C)(C)C)c(O)c(C(C)(C)C)c1 | 90.4 | – | – | – | – | –
9 | CCc1ccc(-c2ccc(C(O)(CC)c3cc4cc(-c5ccc(CC)cc5)ccc4o3)cc2)cc1 (stereo not given) | 55.2 | inactive | inactive | inactive | inactive | –
10 | CC1(C)S[C@@H]2[C@H](NC(=O)[C@H](N)c3ccccc3)C(=O)N2[C@H]1C(=O)O [AMPICILLIN] | – | – | – | – | – | zone of inhibition at 50000 µg/mL (Candida albicans [8]): 0 mm; zone of inhibition at 50000 µg/mL (Bacillus subtilis [9]): 15 mm; zone of inhibition at 50000 µg/mL (Staphylococcus aureus [10]): 16 mm; zone of inhibition at 50000 µg/mL (Escherichia coli [11]): 20 mm
11 | N#Cc1ccc(Cl)c(-c2ccc(C(=O)c3cc4cc(-c5cc(C#N)ccc5Cl)ccc4o3)cc2)c1 | 15.8 | inactive | inactive | inactive | inactive | –
12 | CC(C)(C)C(O)(c1ccc(-c2ccccc2)cc1)c1cc2cc(-c3ccccc3)ccc2o1 (stereo not given) | 18.8 | inactive | inactive | inactive | inactive | –
13 | C=Cc1ccc(-c2ccc(C(=O)c3cc4cc(-c5ccc(C=C)cc5)ccc4o3)cc2)cc1 | 33.7 | – | inactive | – | – | MIC (Candida albicans [6]): 500 µg/mL (≈ 1170 µM); MIC (Bacillus subtilis [7]): 50 µg/mL (≈ 117 µM); MIC (Staphylococcus aureus [13]): 250 µg/mL (≈ 586 µM); zone of inhibition at 50000 µg/mL (Candida albicans [8]): 6 mm; zone of inhibition at 50000 µg/mL (Bacillus subtilis [9]): 16 mm; zone of inhibition at 50000 µg/mL (Staphylococcus aureus [10]): 10 mm; zone of inhibition at 50000 µg/mL (Escherichia coli [11]): 0 mm
14 | CCc1ccc(-c2ccc(C(O)(Cc3ccccc3)c3cc4cc(-c5ccc(CC)cc5)ccc4o3)cc2)cc1 (stereo not given) | 60.3 | inactive | inactive | inactive | inactive | –
15 | CCOc1ccccc1-c1ccc(C(O)(c2cc3cc(-c4ccccc4OCC)ccc3o2)C(C)C)cc1 (stereo not given) | 11.4 | inactive | inactive | inactive | inactive | –
16 | OC(c1ccc(-c2ccccc2F)cc1)c1cc2cc(-c3ccccc3F)ccc2o1 (stereo not given) | 21.3 | inactive | inactive | inactive | inactive | MIC (Bacillus subtilis [7]): 50 µg/mL (≈ 121 µM); zone of inhibition at 50000 µg/mL (Candida albicans [8]): 0 mm; zone of inhibition at 50000 µg/mL (Bacillus subtilis [9]): 6 mm; zone of inhibition at 50000 µg/mL (Staphylococcus aureus [10]): 0 mm; zone of inhibition at 50000 µg/mL (Escherichia coli [11]): 0 mm

Row | Molecule | Activity [1] [%] | growth inhibition (GI) (Candida albicans [2]) | growth inhibition (GI) (Escherichia coli [3]) | growth inhibition (GI) (Bacillus subtilis [4]) | growth inhibition (GI) (Staphylococcus aureus [5]) | further results
17 | CCc1ccc(-c2ccc(C(=O)c3cc4cc(-c5ccc(CC)cc5)ccc4o3)cc2)cc1 | 17.3 | – | inactive | – | – | –
18 | CS(=O)(=O)c1cccc(-c2ccc(C(O)c3cc4cc(-c5cccc(S(C)(=O)=O)c5)ccc4o3)cc2)c1 (stereo not given) | 39.8 | – | inactive | – | – | –
19 | NYSTATIN | – | – | – | – | – | inhibition zone (IZ) (Bacillus subtilis [9]): 0 mm; inhibition zone (IZ) (Staphylococcus aureus [10]): 0 mm; inhibition zone (IZ) (Escherichia coli [11]): 0 mm
20 | CCOc1ccccc1-c1ccc(C(O)(CC)c2cc3cc(-c4ccccc4OCC)ccc3o2)cc1 (stereo not given) | 5.5 | inactive | inactive | inactive | inactive | –
21 | CC(=O)c1ccccc1-c1ccc(C(=O)c2cc3cc(-c4ccccc4C(C)=O)ccc3o2)cc1 | 19 | – | inactive | – | – | MIC (Bacillus subtilis [7]): 100 µg/mL (≈ 218 µM); MIC (Staphylococcus aureus [13]): 100 µg/mL (≈ 218 µM); zone of inhibition at 50000 µg/mL (Candida albicans [8]): 0 mm; zone of inhibition at 50000 µg/mL (Bacillus subtilis [9]): 10 mm; zone of inhibition at 50000 µg/mL (Staphylococcus aureus [10]): 8 mm; zone of inhibition at 50000 µg/mL (Escherichia coli [11]): 0 mm
22 | CCC(O)(c1ccc(-c2ccccc2)cc1)c1cc2cc(-c3ccccc3)ccc2o1 (stereo not given) | 12.9 | inactive | inactive | inactive | inactive | –
23 | CCOc1ccccc1-c1ccc(C(O)(Cc2ccccc2)c2cc3cc(-c4ccccc4OCC)ccc3o2)cc1 (stereo not given) | 16.4 | inactive | inactive | inactive | inactive | –
24 | O=C(c1ccc(-c2cccc([N+](=O)[O-])c2)cc1)c1cc2cc(-c3cccc([N+](=O)[O-])c3)ccc2o1 | 19.5 | – | inactive | – | – | MIC (Bacillus subtilis [7]): 50 µg/mL (≈ 108 µM); zone of inhibition at 50000 µg/mL (Candida albicans [8]): 0 mm; zone of inhibition at 50000 µg/mL (Bacillus subtilis [9]): 7 mm; zone of inhibition at 50000 µg/mL (Staphylococcus aureus [10]): 0 mm; zone of inhibition at 50000 µg/mL (Escherichia coli [11]): 0 mm
25 | CCc1ccc(-c2ccc(C(O)(c3cc4cc(-c5ccc(CC)cc5)ccc4o3)C(C)C)cc2)cc1 (stereo not given) | 34.7 | inactive | inactive | inactive | inactive | –
26 | O=C(c1ccc(-c2ccccc2)cc1)c1cc2cc(-c3ccccc3)ccc2o1 | 7.3 | – | inactive | – | – | MIC (Candida albicans [6]): 10 µg/mL (≈ 26.7 µM); MIC (Bacillus subtilis [7]): 10 µg/mL (≈ 26.7 µM); MIC (Staphylococcus aureus [13]): 1 µg/mL (≈ 2.67 µM); zone of inhibition at 50000 µg/mL (Candida albicans [8]): 10 mm; zone of inhibition at 50000 µg/mL (Bacillus subtilis [9]): 22 mm; zone of inhibition at 50000 µg/mL (Staphylococcus aureus [10]): 15 mm; zone of inhibition at 50000 µg/mL (Escherichia coli [11]): 0 mm
27 | O=C(c1ccc(-c2ccccc2F)cc1)c1cc2cc(-c3ccccc3F)ccc2o1 | 18.7 | inactive | inactive | inactive | inactive | –
28 | O=[N+]([O-])c1cccc(-c2ccc(C(O)c3cc4cc(-c5cccc([N+](=O)[O-])c5)ccc4o3)cc2)c1 (stereo not given) | 19.9 | – | inactive | – | – | MIC (Bacillus subtilis [7]): 500 µg/mL (≈ 1070 µM); MIC (Staphylococcus aureus [13]): 500 µg/mL (≈ 1070 µM); zone of inhibition at 50000 µg/mL (Candida albicans [8]): 0 mm; zone of inhibition at 50000 µg/mL (Bacillus subtilis [9]): 6 mm; zone of inhibition at 50000 µg/mL (Staphylococcus aureus [10]): 6 mm; zone of inhibition at 50000 µg/mL (Escherichia coli [11]): 0 mm
29 | CCOc1ccccc1-c1ccc(C(O)(c2cc3cc(-c4ccccc4OCC)ccc3o2)C(C)(C)C)cc1 (stereo not given) | 21.2 | inactive | inactive | inactive | inactive | –
30 | OC(c1ccc(-c2ccccc2)cc1)c1cc2cc(-c3ccccc3)ccc2o1 (stereo not given) | 79.5 | inactive | inactive | inactive | inactive | –
31 | CCOc1ccccc1-c1ccc(C(=O)c2cc3cc(-c4ccccc4OCC)ccc3o2)cc1 | 16.1 | inactive | inactive | inactive | inactive | –
